Assay results reported in patent US20250242086A1, “THERAPEUTIC BIOMATERIAL THAT ATTENUATES THE FOREIGN BODY RESPONSE” (The Regents of the University of Colorado, a body corporate, priority 2022, published 2025).

Tests used:
cFLIP in cancer cells = settings: cancer cells versus non-cancerous cells; cited from earlier work
macrophages = settings: in vitro; cited from earlier work
[1] = tested on: J774A.1 macrophage cell line; assay: Caspase-Glo 8 caspase activity assay in J774A.1 macrophages with FasL with or without small molecule inhibitor; assay type: cell-based
Protocol: FIG. 11 provides two illustrations depicting in vitro assessment of cell behavior. (A) In Vitro Experimental Protocol: J774A.1 macrophage cell line was incubated overnight at 20,000 cells/well and treated with lipopolysaccharide (LPS) for 4 hours or 3days. Exogenous FasL was then added to initiate the extrinsic apoptotic pathway for 6 hours before caspase activity (Caspase-Glo3/7) and metabolic activity (alamarBlue) assays were performed to study the differences in cell behavior after exposure to each stimulant. (B) In Vitro Experimental Protocol for Small Molecule Testing. J774A. 1 macrophage cell line was incubated overnight at 20,000 cells/well and cultured […] for 3 days. Exogenous FasL was then added to initiate the extrinsic apoptotic pathway with or without a small molecule inhibitor for 6 hours before a caspase activity (Caspase-Glo8) assay was performed to study the differences in cell behavior after exposure. […] J774A.1 macrophage cell line was incubated overnight at 20,000 cells/well and cultured in complete media for 3 days. Exogenous FasL was then added to initiate the extrinsic apoptotic pathway with or without a small molecule inhibitor for 6 hours before a caspase activity (Caspase-Glo 8) assay was performed to study the differences in cell behavior after exposure. Lastly, tests were performed utilizing a small molecule inhibitor (YM155) of CFLIP. […]

Compound: COCCn1c2c([n+](Cc3cnccn3)c1C)C(=O)c1ccccc1C2=O [YM155]
- cFLIP inhibition in cancer cells and induction of their death (cFLIP in cancer cells): inhibited cFLIP in cancer cells and induced their death without affecting non-cancerous cells
- effect on anti-apoptotic programming in macrophages (macrophages): reversed anti-apoptotic programming in macrophages in vitro
- fold change in caspase 8 activity relative to untreated control ([1]; 100 ng/mL small molecule, FasL 6 hours, J774A.1 cells cultured 3 days, N=3): about 23 fold
- effect on caspase 8 activity (qualitative) ([1]; small molecule exposure, J774A.1 cells, FasL): increased caspase 8 activity
